Some test systems named below: A549 NSCLC; HL-60(TB) leukemia; HOP-92 NSCLC; OVCAR-3 ovarian; RPMI-8226 leukemia; SK-MEL-2 melanoma; SK-OV-3 ovarian; TK-10 renal; U251 CNS; HOP-62 NSCLC.
Common to all, as to assay: DTP human tumour cell line panel, 48 h

The structures appear in SMILES notation.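 Assay format: 96-well plates, 48-hour exposure. Here, GI50 denotes the concentration required for 50% inhibition of growth. The concentration for full growth arrest is given as TGI.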 Bounds are passed on as bounds.

As to `CC(C)(O)C1OCC(C2CCC3(C)C4=CCC5C(C)(C)C(O)CCC5(C)C4CCC23C)CC1O` (configuration not stated), the TGI is 31.8 µM with A549 NSCLC; more than 100 µM with HL-60(TB) leukemia; 27.6 µM in the assay with HOP-92 NSCLC; 40 µM in the assay with OVCAR-3 ovarian; 77.8 µM in the assay with RPMI-8226 leukemia; 48.7 µM with SK-MEL-2 melanoma. Also, the TGI with SK-OV-3 ovarian was found to be 31.5 µM; in the assay on TK-10 renal, 25.9 µM; with U251 CNS, 27.5 µM.

On to `COc1ccc(-c2nc(-c3cn(C)c4ncccc34)cs2)cc1`, for which the GI50 with A549 NSCLC was 76.1 µM; in the assay with HL-60(TB) leukemia, 9.11 µM; with HOP-62 NSCLC, more than 100 µM; in the assay on HOP-92 NSCLC it was 2.02 µM; in the assay on OVCAR-3 ovarian, 41.6 µM; in the assay with RPMI-8226 leukemia it was 37.1 µM. For the same molecule, the GI50 with SK-MEL-2 melanoma was 55.3 µM; in the assay on SK-OV-3 ovarian it was more than 100 µM; in the assay with TK-10 renal, more than 100 µM; with U251 CNS, 78.5 µM. Also, the TGI in the assay with A549 NSCLC was more than 100 µM; with HL-60(TB) leukemia, more than 100 µM; in the assay with HOP-62 NSCLC, more than 100 µM; in the assay on HOP-92 NSCLC, 55.9 µM; in the assay with OVCAR-3 ovarian it was more than 100 µM; with RPMI-8226 leukemia it was more than 100 µM. The TGI with SK-MEL-2 melanoma, in the assay with SK-OV-3 ovarian, in the assay on TK-10 renal and with U251 CNS was more than 100 µM each time.

Regarding `CC[N+](CC)(CC)CCCn1c2c(c3ccccc3c1=O)C(=O)c1ccccc1-2`, the GI50 in the assay with A549 NSCLC was 6.27 µM; with HL-60(TB) leukemia it was 58.6 µM; in the assay with HOP-92 NSCLC it was 17.9 µM; with OVCAR-3 ovarian, 9.05 µM; in the assay on RPMI-8226 leukemia, 5.2 µM; in the assay on SK-MEL-2 melanoma, 21.8 µM. Besides, the GI50 is 52.6 µM in the assay on SK-OV-3 ovarian, 1.01 µM with TK-10 renal and 4.77 µM in the assay with U251 CNS. The TGI was 35.8 µM in the assay with A549 NSCLC; more than 100 µM in the assay with HL-60(TB) leukemia; more than 100 µM in the assay on HOP-92 NSCLC; 50.2 µM in the assay on OVCAR-3 ovarian; more than 100 µM with RPMI-8226 leukemia; 53.4 µM in the assay on SK-MEL-2 melanoma. For the same molecule, the TGI with SK-OV-3 ovarian, with TK-10 renal and in the assay with U251 CNS was more than 100 µM in each case.

Turning to `O=C(O)c1cc2c(cn1)[nH]c1ccccc12`, the concentration for total growth inhibition (TGI) with A549 NSCLC, in the assay on HL-60(TB) leukemia, in the assay on HOP-62 NSCLC, with HOP-92 NSCLC, in the assay on OVCAR-3 ovarian and with RPMI-8226 leukemia was more than 100 µM in each case. Also, the TGI in the assay with SK-OV-3 ovarian, with TK-10 renal and in the assay with U251 CNS was more than 100 µM in each case.

For the molecule `O=C(c1ccccc1)c1c(C(=O)c2ccccc2)c(-c2ccccc2)c2c(-c3ccccc3)sc(-c3ccccc3)c2c1-c1ccccc1`, the concentration for total growth inhibition (TGI) in the assay with A549 NSCLC, in the assay with HL-60(TB) leukemia, with HOP-62 NSCLC, in the assay with HOP-92 NSCLC, in the assay with OVCAR-3 ovarian and in the assay on RPMI-8226 leukemia was more than 100 µM throughout. The TGI in the assay with SK-OV-3 ovarian, in the assay on TK-10 renal and with U251 CNS was more than 100 µM each time.

Take `COC(=O)N/N=C/c1oc(-c2cccc([N+](=O)[O-])c2)c(-c2cccc([N+](=O)[O-])c2)c1[N+](=O)[O-]`: the total growth inhibition concentration (TGI) in the assay with A549 NSCLC was more than 100 µM; in the assay on HL-60(TB) leukemia, 55.4 µM; in the assay with HOP-62 NSCLC, more than 100 µM; in the assay on HOP-92 NSCLC it was more than 100 µM; in the assay with OVCAR-3 ovarian, more than 100 µM; with RPMI-8226 leukemia, more than 100 µM. Besides, the TGI in the assay with SK-OV-3 ovarian, with TK-10 renal and in the assay on U251 CNS was more than 100 µM each time.

`CN(C)c1ccc2c3c(c(=O)oc2c1)CCC3`: the TGI in the assay with A549 NSCLC, with HL-60(TB) leukemia, with HOP-62 NSCLC, in the assay with HOP-92 NSCLC, in the assay with OVCAR-3 ovarian and in the assay on RPMI-8226 leukemia was more than 100 µM in each case. The TGI in the assay with SK-MEL-2 melanoma, with TK-10 renal and in the assay with U251 CNS was more than 100 µM in each case.

As to `N.N.NC(CS)C(=O)[O-].NC(CS)C(=O)[O-].[Pt+4]` (configuration not stated), the GI50 with A549 NSCLC, in the assay with HL-60(TB) leukemia, in the assay with HOP-92 NSCLC, in the assay on OVCAR-3 ovarian, in the assay with RPMI-8226 leukemia and in the assay with SK-MEL-2 melanoma was more than 50 µM throughout. Also, the GI50 in the assay with SK-OV-3 ovarian, with TK-10 renal and in the assay with U251 CNS was more than 50 µM in each case. The TGI with A549 NSCLC, in the assay on HL-60(TB) leukemia, in the assay with HOP-92 NSCLC, in the assay on OVCAR-3 ovarian, in the assay on RPMI-8226 leukemia and in the assay on SK-MEL-2 melanoma was more than 50 µM in each case. Moreover, the TGI in the assay on SK-OV-3 ovarian, in the assay on TK-10 renal and with U251 CNS was more than 50 µM in each case.

Take `O=S1(=O)C[C@@H](O)[C@H](O)CS1`: the TGI in the assay with A549 NSCLC, with HL-60(TB) leukemia, in the assay with HOP-62 NSCLC, with HOP-92 NSCLC, in the assay with OVCAR-3 ovarian and in the assay with RPMI-8226 leukemia was more than 100 µM in each case. Also, the TGI with SK-OV-3 ovarian, with TK-10 renal and with U251 CNS was more than 100 µM in each case.

As for `Nc1c(-c2nc3ccccc3[nH]2)sc(=S)n1-c1ccccc1`, the TGI in the assay on A549 NSCLC, in the assay on HL-60(TB) leukemia, in the assay with HOP-62 NSCLC, with HOP-92 NSCLC, in the assay with OVCAR-3 ovarian and in the assay with RPMI-8226 leukemia was more than 100 µM throughout. Besides, the TGI with SK-MEL-2 melanoma, in the assay with SK-OV-3 ovarian and in the assay on U251 CNS was more than 100 µM in each case.

Turning to `CCOP(=O)(OCC)/C(C#N)=C/c1ccco1`, the TGI in the assay on A549 NSCLC, with HL-60(TB) leukemia, in the assay with HOP-62 NSCLC, with HOP-92 NSCLC, in the assay with RPMI-8226 leukemia and in the assay on SK-MEL-2 melanoma was more than 100 µM each time. Further, the TGI in the assay on SK-OV-3 ovarian, with TK-10 renal and with U251 CNS was more than 100 µM in each case.

As for `COC(=O)c1c(CC#N)cccc1CC#N`, the TGI in the assay with A549 NSCLC, with HL-60(TB) leukemia, with HOP-62 NSCLC, in the assay with HOP-92 NSCLC, in the assay on OVCAR-3 ovarian and in the assay with RPMI-8226 leukemia was more than 100 µM each time. Further, the TGI in the assay with SK-MEL-2 melanoma, with SK-OV-3 ovarian and in the assay with U251 CNS was more than 100 µM throughout.

The values above are taken from PubChem BioAssay (NCI).
